In publication PMC8399443, “Synthesis, Biological Evaluation, and In Silico Modeling of N-Substituted Quinoxaline-2-Carboxamides” (Pharmaceuticals, 2021):
In brackets after ≈: the same amount, converted by molar mass. Several values for one entry are separate records, joined by “and”; a condition that tells them apart may be missing. Equal values may be shown once. Read-outs that look alike come from different tables or passages of the source.

Experiments:
HepG2 cell line = test: In vitro cytotoxicity, CellTiter 96 (MTS); assay type: cell-based; conditions: Homo sapiens, read-out: HepG2 IC50
Mtb H37Ra [1] = test: In vitro antimycobacterial activity, Microplate Alamar Blue Assay (MABA); assay type: cell-based, Mycobacterium tuberculosis; conditions: for SI (selectivity index): IC50 HepG2 (µM)/MIC Mtb H37Ra (µM); for MIC: Mycobacterium tuberculosis, H37RA, read-out: MIC Mtb H37Ra
M. aurum = test: In vitro antimycobacterial activity, MABA; assay type: cell-based, Mycobacterium aurum; conditions: Mycolicibacterium aurum, read-out: MIC M. aurum
M. smegmatis = test: In vitro antimycobacterial activity, MABA; assay type: cell-based, Mycobacterium smegmatis; conditions: Mycolicibacterium smegmatis, read-out: MIC M. smeg
[2] = test system: human prostate cancer PC-3 cell line; test: In vitro cytotoxicity; assay type: cell-based; conditions: PC-3, 24 h, read-out: Cytotoxicity IC50 PC-3
L. corymbifera = test: In vitro antifungal activity, microdilution broth (EUCAST); assay type: cell-based; conditions: Lichtheimia corymbifera
[3] = In vitro cytotoxicity, non-cancerous cells; assay type: cell-based; conditions: human, HK-2 kidney cortex proximal tubule cells (non-cancerous); 24 hours incubation
S. marcescens = test: In vitro antibacterial activity, microdilution broth (EUCAST); assay type: cell-based; conditions: Serratia marcescens
E. faecalis = test: as above; assay type: cell-based; conditions: Enterococcus faecalis
C. krusei = test: In vitro antifungal activity, microdilution broth (EUCAST); assay type: cell-based, Candida krusei; conditions: Pichia kudriavzevii
K. pneumoniae = test: In vitro antibacterial activity, microdilution broth (EUCAST); assay type: cell-based; conditions: Klebsiella pneumoniae
MRSA = test: as above; assay type: cell-based, Staphylococcus aureus methicillin resistant; conditions: Staphylococcus aureus
E. coli = test: as above; assay type: cell-based; conditions: Escherichia coli
C. tropicalis = test: In vitro antifungal activity, microdilution broth (EUCAST); assay type: cell-based; conditions: Candida tropicalis
S. aureus = test: In vitro antibacterial activity, microdilution broth (EUCAST); assay type: cell-based; conditions: Staphylococcus aureus
A. fumigatus = test: In vitro antifungal activity, microdilution broth (EUCAST); assay type: cell-based; conditions: Aspergillus fumigatus
T. interdigitale = test: as above; assay type: cell-based; conditions: Trichophyton interdigitale
[4] = test system: human epithelial kidney cancer A498 cell line; test: In vitro cytotoxicity; assay type: cell-based; conditions: A498, 24 h, read-out: Cytotoxicity IC50 A498
A. flavus = test: In vitro antifungal activity, microdilution broth (EUCAST); assay type: cell-based; conditions: Aspergillus flavus
[5] = test system: human glioblastoma U-87 MG cell line; test: In vitro cytotoxicity; assay type: cell-based; conditions: 24 h, read-out: Cytotoxicity IC50 U-87 MG
C. parapsilosis = test: In vitro antifungal activity, microdilution broth (EUCAST); assay type: cell-based, Candida parapsilosis; conditions: Lodderomyces parapsilosis
P. aeruginosa = test: In vitro antibacterial activity, microdilution broth (EUCAST); assay type: cell-based; conditions: Pseudomonas aeruginosa
S. epidermidis = test: as above; assay type: cell-based; conditions: Staphylococcus epidermidis
[6] = test system: human ovarian cancer SK-OV-3 cell line; test: In vitro cytotoxicity; assay type: cell-based; conditions: SK-OV-3, 24 h, read-out: Cytotoxicity IC50 SK-OV-3
C. albicans = test: In vitro antifungal activity, microdilution broth (EUCAST); assay type: cell-based; conditions: Candida albicans
Mtb H37Ra [7] = conditions: Figure 2, cited from earlier work
[8] = HepG2, cytotoxicity, 24 h incubation, CellTiter 96
[9] = 48 h, standards, read-out: MIC Lichtheimia corymbifera
[10] = 48 h, standards, read-out: MIC Aspergillus fumigatus
[11] = 72 h, standards, read-out: MIC Trichophyton interdigitale
[12] = 48 h, standards, read-out: MIC Aspergillus flavus
[13] = 48 h, standards, read-out: MIC Candida albicans

With O=C(NCc1cccc(C(F)(F)F)c1)c1cnc2ccccc2n1 [Compound 28] the IC50 (HepG2 cell line; [8]) was 48.6 µM, the “SI (selectivity index)” value (Mtb H37Ra [1]) was 4.12 and the “MIC Mtb H37Ra” value (Mtb H37Ra [1]; MABA, pH of testing medium 6.6) was 3.91 (28) µg/mL. The MIC (Mtb H37Ra [1]) was 3.91 µg/mL and 11.8 µM, the MIC (M. aurum; MABA) was no less than 500 µg/mL and the MIC (M. smegmatis; MABA) was 250 µg/mL (≈ 755 µM).

Work on O=C(NCc1cccc2ccccc12)c1cnc2ccccc2n1 [Compound 29, N-(naphthalen-1-ylmethyl)quinoxaline-2-carboxamide] yielded an IC50 (HepG2 cell line; [8]) of 37.3 µM, an IC50 [2] of 68.5 µM and an MIC (L. corymbifera; read-out: MIC L. corymbifera) of no less than 500 µM. For the same compound, the IC50 at 24 h [3] was greater than 250 µM, the MIC (S. marcescens; read-out: MIC S. marcescens) was no less than 500 µM and the MIC (Mtb H37Ra [1]) was ≥ 250 µg/mL and ≥ 798 µM. The MIC (E. faecalis; read-out: MIC E. faecalis) was no less than 500 µM, the MIC (C. krusei) was no less than 500 µM and the MIC (K. pneumoniae; read-out: MIC K. pneumoniae) was no less than 500 µM. The MIC (M. aurum; MABA) was ≥ 125 µg/mL and ≥ 399 µM, the MIC (MRSA; read-out: MIC MRSA) was no less than 500 µM and the MIC (E. coli; read-out: MIC E. coli) was no less than 500 µM. The MIC (C. tropicalis) was no less than 500 µM, the MIC (S. aureus; read-out: MIC S. aureus) was no less than 500 µM and the MIC (M. smegmatis; MABA) was ≥ 125 µg/mL and ≥ 399 µM. For the same compound, the MIC (A. fumigatus; read-out: MIC A. fumigatus) was no less than 500 µM, the MIC (T. interdigitale; read-out: MIC T. interdigitale) was no less than 500 µM and the IC50 [4] was greater than 250 µM. It also gave an MIC (A. flavus; read-out: MIC A. flavus) of no less than 500 µM, an IC50 [5] greater than 250 µM and an MIC (C. parapsilosis) of no less than 500 µM. The MIC (P. aeruginosa; read-out: MIC P. aeruginosa) was no less than 500 µM, the MIC (S. epidermidis; read-out: MIC S. epidermidis) was no less than 500 µM and the IC50 [6] was 49.6 µM. For the same compound, the MIC (C. albicans; read-out: MIC C. albicans) was no less than 500 µM.

O=C(NCc1ccc(Cl)cc1Cl)c1cnc2ccccc2n1 [Compound 30] showed an IC50 (HepG2 cell line; [8]) greater than 100 µM, an MIC (Mtb H37Ra [1]) of no less than 500 µg/mL and an MIC (M. aurum; MABA) of no less than 125 µg/mL. It also gave an MIC (M. smegmatis; MABA) of no less than 125 µg/mL.

For O=C(NCc1ccc(Cl)c(Cl)c1)c1cnc2ccccc2n1 [Compound 31], the IC50 (HepG2 cell line; [8]) was 66.9 µM, the “SI (selectivity index)” value (Mtb H37Ra [1]) was 2.80 and the MIC (Mtb H37Ra [1]) was 7.81 µg/mL and 23.5 µM. For the same compound, the MIC (M. aurum; MABA) was no less than 500 µg/mL and the MIC (M. smegmatis; MABA) was no less than 500 µg/mL.

With O=C(NCCc1ccccc1)c1cnc2ccccc2n1 [Compound 32, N-phenethylquinoxaline-2-carboxamide] the IC50 (HepG2 cell line; [8]) was greater than 1000 µM, the MIC (Mtb H37Ra [1]) was no less than 500 µg/mL and the MIC (M. aurum; MABA) was no less than 500 µg/mL. For the same compound, the MIC (M. smegmatis; MABA) was no less than 500 µg/mL.

For O=C(NCCCc1ccccc1)c1cnc2ccccc2n1 [Compound 33, N-phenylpropylquinoxaline-2-carboxamide], the IC50 (HepG2 cell line; [8]) was 146 µM, the “SI (selectivity index)” value (Mtb H37Ra [1]) was 2.7 and the MIC (Mtb H37Ra [1]) was 15.6 µg/mL and 53.6 µM. It also gave an MIC (M. aurum; MABA) of no less than 500 µg/mL and an MIC (M. smegmatis; MABA) of no less than 500 µg/mL.

In the case of NNC(=O)c1ccncc1 [INH, isoniazid, reference compound], the IC50 (HepG2 cell line; [8]) is reported as greater than 1000 µM, the MIC (Mtb H37Ra [1]) is reported as 0.25 µg/mL and 1.82 µM and the MIC (M. aurum) is reported as 3.91 µg/mL (≈ 28.5 µM). The MIC (M. smegmatis) was 15.6 µg/mL (≈ 114 µM).

In the case of NC(=O)c1cnccn1 [PZA, pyrazinamide, reference compound], the IC50 (HepG2 cell line; HepG2, 24 h) is given as greater than 1000 µM, the “MIC for Mtb H37Ra” value (Mtb H37Ra [7]; acidic pH) is given as less than 3.91 µg/mL and the “MIC for Mtb H37Ra” value (Mtb H37Ra [7]; neutral pH) is given as greater than 500 µg/mL. The MIC (Mtb H37Ra [1]) was ≥ 500 µg/mL and ≥ 4060 µM, the MIC (M. aurum; MABA) was no less than 500 µg/mL and the MIC (M. smegmatis; MABA) was no less than 500 µg/mL.

For CO[C@H]1/C=C/O[C@@]2(C)Oc3c(C)c(O)c4c(O)c(c(/C=N/N5CCN(C)CC5)c(O)c4c3C2=O)NC(=O)/C(C)=C\C=C\[C@H](C)[C@H](O)[C@@H](C)[C@@H](O)[C@@H](C)[C@H](OC(C)=O)[C@@H]1C [RIF, rifampicin, reference compound], the IC50 (HepG2 cell line; [8]) was greater than 500 µM, the MIC (Mtb H37Ra [1]) was 0.00313 µg/mL and 0.0038 µM and the MIC (M. aurum) was 0.39 µg/mL (≈ 0.474 µM). The MIC (M. smegmatis) was 12.5 µg/mL (≈ 15.2 µM).

With C[C@@H]1[C@H](O)[C@@H](C)/C=C/C=C/C=C/C=C/C=C/C=C/C=C/[C@H](O[C@@H]2O[C@H](C)[C@@H](O)[C@H](N)[C@@H]2O)C[C@@H]2O[C@](O)(C[C@@H](O)C[C@@H](O)[C@H](O)CC[C@@H](O)C[C@@H](O)CC(=O)O[C@H]1C)C[C@H](O)[C@H]2C(=O)O [amphotericin B] the MIC (L. corymbifera; [9]) was 0.5 µg/mL, the MIC (C. krusei; 48 h, standards) was 1 µg/mL and the MIC (C. tropicalis; 48 h, standards) was 1 µg/mL. It also gave an MIC (A. fumigatus; [10]) of 1 µg/mL, an MIC (T. interdigitale; [11]) of 2 µg/mL and an MIC (A. flavus; [12]) of 8 µg/mL. The MIC (C. parapsilosis; 48 h, standards) was 0.5 µg/mL and the MIC (C. albicans; [13]) was 0.5 µg/mL.

Work on CNC(C)C1CCC(N)C(OC2C(N)CC(N)C(OC3OCC(C)(O)C(NC)C3O)C2O)O1 (stereo not drawn) [gentamicin] yielded an MIC (S. marcescens; 48 h, standards, read-out: MIC Serratia marcescens) of 2 µg/mL, an MIC (E. faecalis; 48 h, standards, read-out: MIC Enterococcus faecalis) of 8 µg/mL and an MIC (K. pneumoniae; 48 h, standards, read-out: MIC Klebsiella pneumonia) greater than 8 µg/mL. It also gave an MIC (MRSA; 48 h, read-out: MIC Staphylococcus aureus methicillin resistant) of 16 to 32 µg/mL, an MIC (E. coli; 48 h, standards, read-out: MIC Escherichia coli) of 1 to 2 µg/mL and an MIC (S. aureus; 48 h, standards, read-out: MIC Staphylococcus aureus) of 1 µg/mL. It also gave an MIC (P. aeruginosa; 48 h, standards, read-out: MIC Pseudomonas aeruginosa) of 0.5 µg/mL and an MIC (S. epidermidis; 48 h, standards, read-out: MIC Staphylococcus epidermidis) greater than 8 µg/mL.

Compound C[C@@H](c1ncncc1F)[C@](O)(Cn1cncn1)c1ccc(F)cc1F [voriconazole] has an MIC (L. corymbifera; [9]) greater than 16 µg/mL, an MIC (C. krusei; 48 h, standards) of 0.5 µg/mL and an MIC (C. tropicalis; 48 h, standards) greater than 16 µg/mL. It also gave an MIC (A. fumigatus; [10]) of 1 µg/mL, an MIC (T. interdigitale; [11]) greater than 16 µg/mL and an MIC (A. flavus; [12]) greater than 16 µg/mL. The MIC (C. parapsilosis; 48 h, standards) was 8 µg/mL and the MIC (C. albicans; [13]) was greater than 16 µg/mL.
